Experimental data published in the supplement of paper PMC6045584.
± gives the standard deviation of the averaged measurements.

Columns and labels:
DOXORUBICIN = compound: COc1cccc2c1C(=O)c1c(O)c3c(c(O)c1C2=O)C[C@@](O)(C(=O)CO)C[C@@H]3O[C@H]1C[C@H](N)[C@H](O)[C@H](C)O1 [DOXORUBICIN]; test: surviving fraction relative to DMSO-only wells; higher = less growth inhibition; conditions: exposure time: 5 days
Summary of the method: (§1)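 Viability values are CellTiter-Glo luminescence readings, given as surviving fraction against the median of DMSO-only wells. The readings were taken after 10 minutes at room temperature, following five days of continuous exposure to inhibitors at 0.5, 1, 5, 10, 50, 100, 500 and 1000 nM that began 24 hours after log-phase tumour cell lines were seeded at 250–500 cells per well in 384-well plates. Every line was screened three times and kept only if replicate Pearson r >0.7 and median Z' >0.3.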

FLUOROURACIL = compound: O=c1[nH]cc(F)c(=O)[nH]1 [FLUOROURACIL]; test: as above; conditions: exposure time: 5 days
Summary of the method: as §1

Row | Test System | surviving fraction (DOXORUBICIN; 0.5 nM) | surviving fraction (DOXORUBICIN; 1 nM) | surviving fraction (DOXORUBICIN; 5 nM) | surviving fraction (DOXORUBICIN; 10 nM) | surviving fraction (DOXORUBICIN; 50 nM) | surviving fraction (DOXORUBICIN; 100 nM) | surviving fraction (DOXORUBICIN; 500 nM) | surviving fraction (DOXORUBICIN; 1000 nM) | surviving fraction (FLUOROURACIL; 0.5 nM) | surviving fraction (FLUOROURACIL; 1 nM) | surviving fraction (FLUOROURACIL; 5 nM) | surviving fraction (FLUOROURACIL; 10 nM) | surviving fraction (FLUOROURACIL; 50 nM) | surviving fraction (FLUOROURACIL; 100 nM) | surviving fraction (FLUOROURACIL; 500 nM) | surviving fraction (FLUOROURACIL; 1000 nM)
1 | MDAMB436 BREAST | 0.895 ± 0.077 | 0.905 ± 0.069 | 0.822 ± 0.12 | 0.783 ± 0.026 | 0.484 ± 0.036 | 0.423 ± 0.049 | 0.297 ± 0.016 | 0.269 ± 0.031 | 0.937 ± 0.046 | 0.921 ± 0.063 | 0.964 ± 0.12 | 0.846 ± 0.11 | 0.84 ± 0.12 | 0.815 ± 0.029 | 0.722 ± 0.031 | 0.625 ± 0.013
2 | MDAMB453 BREAST | 1.05 ± 0.045 | 1.04 ± 0.065 | 1.07 ± 0.017 | 1.08 ± 0.044 | 0.723 ± 0.065 | 0.395 ± 0.066 | 0.0503 ± 0.0055 | 0.0433 ± 0.0023 | 1.01 ± 0.092 | 1.01 ± 0.13 | 1.06 ± 0.11 | 0.987 ± 0.079 | 0.979 ± 0.035 | 0.968 ± 0.016 | 0.795 ± 0.026 | 0.706 ± 0.009
3 | MDAMB468 BREAST | 0.897 ± 0.065 | 0.931 ± 0.075 | 0.992 ± 0.039 | 0.969 ± 0.013 | 0.49 ± 0.18 | 0.342 ± 0.006 | 0.11 ± 0.035 | 0.038 ± 0.0072 | 0.887 ± 0.039 | 0.885 ± 0.095 | 0.919 ± 0.064 | 0.89 ± 0.058 | 0.881 ± 0.12 | 0.816 ± 0.06 | 0.859 ± 0.076 | 0.706 ± 0.097
4 | MFM223 BREAST | 1.11 ± 0.045 | 1.05 ± 0.032 | 0.975 ± 0.069 | 0.702 ± 0.12 | 0.669 ± 0.082 | 0.221 ± 0.013 | 0.079 ± 0.0053 | 0.052 ± 0.007 | 1.14 ± 0.21 | 1.12 ± 0.17 | 1.18 ± 0.22 | 1.096 ± 0.0076 | 0.719 ± 0.014 | 0.772 ± 0.062 | 0.738 ± 0.036 | 0.667 ± 0.032
5 | MG63 BONE | 1.02 ± 0.041 | 1.04 ± 0.053 | 1.04 ± 0.022 | 1.03 ± 0.028 | 0.21 ± 0.014 | 0.16 ± 0.025 | 0.0327 ± 0.0025 | 0.031 ± 0.0017 | 1.02 ± 0.041 | 1 ± 0.028 | 1.05 ± 0.021 | 1.03 ± 0.019 | 1.06 ± 0.024 | 0.99 ± 0.023 | 0.947 ± 0.024 | 0.805 ± 0.013
6 | MHM BONE | 0.992 ± 0.027 | 1.03 ± 0.016 | 1.008 ± 0.009 | 1.005 ± 0.0081 | 0.841 ± 0.029 | 0.792 ± 0.02 | 0.296 ± 0.031 | 0.16 ± 0.019 | 1.04 ± 0.07 | 1.02 ± 0.028 | 1.06 ± 0.047 | 1.04 ± 0.039 | 1.084 ± 0.0067 | – | 1.063 ± 0.0092 | 0.974 ± 0.034
7 | NCIH441 LUNG | 1.04 ± 0.054 | 1.06 ± 0.051 | 0.937 ± 0.032 | 0.799 ± 0.029 | 0.558 ± 0.013 | 0.461 ± 0.024 | 0.246 ± 0.019 | 0.096 ± 0.0069 | 1.08 ± 0.054 | 1.05 ± 0.076 | 1.06 ± 0.11 | 1.1 ± 0.021 | 0.996 ± 0.16 | 0.95 ± 0.18 | 0.998 ± 0.1 | 0.798 ± 0.11
8 | NOS1 BONE | 1.16 ± 0.077 | 0.972 ± 0.051 | 0.982 ± 0.1 | 0.643 ± 0.074 | 0.752 ± 0.11 | 0.455 ± 0.036 | 0.106 ± 0.013 | 0.0487 ± 0.0068 | 1.01 ± 0.032 | 1.01 ± 0.14 | 1.09 ± 0.12 | 1.14 ± 0.11 | 0.91 ± 0.12 | 0.943 ± 0.073 | 0.799 ± 0.065 | 0.694 ± 0.081
9 | NY BONE | 0.959 ± 0.019 | 0.966 ± 0.013 | 0.981 ± 0.015 | 0.876 ± 0.058 | 0.294 ± 0.015 | 0.201 ± 0.0044 | 0.0617 ± 0.004 | 0.0443 ± 0.0057 | 0.98 ± 0.029 | 0.923 ± 0.032 | 1.03 ± 0.034 | 1.01 ± 0.028 | 1.07 ± 0.02 | 0.993 ± 0.018 | 0.934 ± 0.025 | 0.821 ± 0.014
10 | OS25HAL BONE | 0.982 ± 0.016 | 0.974 ± 0.013 | 0.97033 ± 0.00058 | 0.965 ± 0.0076 | 0.258 ± 0.033 | 0.151 ± 0.01 | 0.0337 ± 0.0047 | 0.038 ± 0.003 | 1 ± 0.062 | 1.01 ± 0.056 | 0.985 ± 0.019 | 0.977 ± 0.014 | 1.05 ± 0.082 | 1.15 ± 0.014 | 0.939 ± 0.032 | 0.808 ± 0.032
11 | OSHN BONE | 1.04 ± 0.039 | 1.05 ± 0.059 | 1.05 ± 0.031 | 1.03 ± 0.028 | 0.299 ± 0.068 | 0.286 ± 0.062 | 0.0707 ± 0.0021 | 0.0503 ± 0.00058 | 1.01 ± 0.014 | 0.972 ± 0.029 | 1.061 ± 0.007 | 1.001 ± 0.0042 | 1.007 ± 0.0011 | 0.9777 ± 0.0071 | 0.989 ± 0.014 | 0.875 ± 0.029
12 | PCI30 HEADNECK | 0.979 ± 0.094 | 0.929 ± 0.01 | 0.92 ± 0.13 | 0.637 ± 0.061 | 0.551 ± 0.022 | 0.587 ± 0.024 | 0.079 ± 0.023 | 0.03 ± 0.0027 | 0.934 ± 0.056 | 1.06 ± 0.029 | 1.08 ± 0.058 | 1.1 ± 0.058 | 0.97 ± 0.067 | 0.981 ± 0.082 | 0.959 ± 0.06 | 0.931 ± 0.034
13 | RDES SOFT TISSUE | 1.15 ± 0.035 | 1.15 ± 0.061 | 1.04 ± 0.05 | 1.25 ± 0.14 | 0.16 ± 0.021 | 0.0457 ± 0.004 | 0.087 ± 0.0098 | 0.0413 ± 0.0031 | 1.09 ± 0.053 | 0.968 ± 0.032 | 1.06 ± 0.047 | 0.912 ± 0.048 | 0.788 ± 0.19 | 0.632 ± 0.01 | 1.3 ± 0.11 | 1.51 ± 0.22
14 | S68 BREAST | 0.792 ± 0.077 | 0.87 ± 0.13 | 0.693 ± 0.16 | 0.424 ± 0.016 | 0.205 ± 0.013 | 0.19 ± 0.015 | 0.037 ± 0.0046 | 0.0317 ± 0.0011 | 1.06 ± 0.15 | 1.14 ± 0.31 | 1.06 ± 0.29 | 1.23 ± 0.21 | 0.87 ± 0.13 | 0.749 ± 0.034 | 0.656 ± 0.16 | 0.465 ± 0.061
15 | SAOS2 BONE | 1.13 ± 0.038 | 1.1 ± 0.054 | 1.09 ± 0.043 | 0.914 ± 0.055 | 0.277 ± 0.0081 | 0.111 ± 0.0087 | 0.036 | 0.0367 ± 0.0029 | 1.04 ± 0.073 | 1.05 ± 0.037 | 1.11 ± 0.046 | 1.09 ± 0.02 | 0.826 ± 0.096 | 0.8 ± 0.17 | 0.758 ± 0.11 | 0.598 ± 0.2
16 | SCC003 HEADNECK | 0.959 ± 0.12 | 1.04 ± 0.12 | 1.02 ± 0.1 | 0.855 ± 0.098 | 0.396 ± 0.046 | 0.431 ± 0.065 | 0.11 ± 0.025 | 0.0417 ± 0.0086 | 1.02 ± 0.082 | 1.05 ± 0.042 | 1.03 ± 0.024 | 0.965 ± 0.044 | 1.02 ± 0.12 | 0.881 ± 0.036 | 0.6943 ± 0.005 | 0.87 ± 0.13
17 | SCC36 HEADNECK | 0.694 ± 0.073 | 1.13 ± 0.046 | 0.903 ± 0.001 | 0.795 ± 0.087 | 0.426 ± 0.024 | 0.5 ± 0.069 | 0.035 ± 0.0027 | 0.034 ± 0.002 | 0.92 ± 0.093 | 0.872 ± 0.052 | 1.06 ± 0.13 | 1.05 ± 0.031 | 0.739 ± 0.095 | 0.775 ± 0.029 | 0.624 ± 0.076 | 0.529 ± 0.047
18 | SCC47 HEADNECK | 1.021 ± 0.0081 | 1.03 ± 0.11 | 1.09 ± 0.09 | 0.966 ± 0.051 | 0.573 ± 0.027 | 0.597 ± 0.039 | 0.09 ± 0.0027 | 0.0307 ± 0.0015 | 1.12 ± 0.088 | 1.14 ± 0.026 | 1.22 ± 0.15 | 1.1 ± 0.043 | 1.02 ± 0.048 | 0.945 ± 0.051 | 0.854 ± 0.047 | 0.956 ± 0.057
19 | SCC90 HEADNECK | 0.967 ± 0.034 | 0.956 ± 0.046 | 0.954 ± 0.029 | 1.06 ± 0.1 | 0.711 ± 0.12 | 0.571 ± 0.072 | 0.11 ± 0.033 | 0.0687 ± 0.0095 | 0.968 ± 0.033 | 0.982 ± 0.096 | 1 ± 0.039 | 1.012 ± 0.009 | 0.928 ± 0.087 | 0.86 ± 0.1 | 0.908 ± 0.064 | 0.95 ± 0.08
